Test results taken from patent US11324706B2, “Composition for inhibiting growth of breast cancer stem cells containing phenylacetaldehyde” (JEJU NATIONAL UNIVERSITY INDUSTRY-ACADEMIC COOPERATION …, priority 2016, dated 2022).
“Also recorded” adds a separate entry of the source.

What was measured:
[1] = system: nuclear p65; test: Western blotting of mammosphere nuclear proteins, p65; format: cell-based, human; conditions: MCF-7-derived mammospheres
Description: The proteins isolated from mammospheres of PAA-treated MCF-7 were separated on 10% SDS-PAGE and transferred to a polyvinylidene difluoride membrane (Millipore, Bedford, Mass., USA). The membrane was blocked in 5% skim milk-containing PBS-Tween 20 (0.1%, v/v) for 30 minutes at room temperature. The blot was cultured at 4° C. in a blocking solution containing primary antibodies overnight. The used primary antibodies were as follows: Stat3, p65, Lamin B, and phospho-Stat3 (Cell Signaling, Beverly, Mass., USA). β-actin antibodies (Santa Cruz Biotechnology) were used as a loading control group. After washing with PBS-Tween 20 (0.1%, v/v), the blot was cultured in a horseradish peroxidase-conjugated secondary antibody and subjected to photosensitive treatment with a chemiluminescent detection kit (Santa Cruz Biotechnology).
In order to investigate cellular functions of PAA, STAT3 and NF-κB pathways were investigated in MCF-7-derived mammospheres subjected to treatment with PAA. As compared to the control group, PAA reduced phosphorylation of nuclear STAT3 proteins.

[2] = system: CD44high/CD24low cell populations of MDA-MB-231 cells; test: Flow cytometric analysis of CD44 and CD24 expression; format: cell-based, human; conditions: MDA-MB-231, PAA 0.1 mM
Description: For FACS analysis, 50,000 cells were obtained. Gating was based on control antibody;
Expression of CD44 and CD24 in MDA-MB-231 cells was measured by FACS analysis. The cells were isolated and harvested using 1× trypsin/EDTA, and a million of cells were suspended, labelled with FITC-conjugated anti-human CD44 and PE-conjugated anti-human CD24 antibodies (BD Pharmingen, San Diego, Calif., USA) and cultured at 4° C. for 30 minutes. Then, the cells were washed with 1×PBS three times and analyzed by flow cytometry (Accuri C6, BD, San Diego, Calif., USA).

[3] = system: Caspase 3/7 activity in MDA-MB-231 cells; test: Caspase-3/7 analysis (Caspase-Glo 3/7 kit); format: cell-based, human; conditions: MDA-MB-231, 24 hours
Description: (§1) (FIGS. 1D, E and F) show effects of PAA on apoptosis of breast cancer cells. MDA-MB-231 cells were treated with PAA for 24 hours, and apoptotic cells were analyzed by FACS using an Annexin V-PI staining kit. Caspase 3/7 activity in MDA-MB-231 cells was analyzed using a Caspase-Gloss 3/7 kit. By fluorescent staining, apoptotic cells were analyzed and nuclei thereof were stained with Hoechst 33258 in breast cancers (magnified, 200×) (FIG. 1);
Cancer cells were treated with different concentrations of PAA for 24 hours. Caspase-3/7 activity was analyzed in accordance with the manufacturer's instructions regarding a Caspase-Glo 3/7 kit (Promega, Wis., USA). 100 μl of a Caspase-Glo 3/7 reagent was added to a 96-well for culturing cancer cells. The plate was covered with a plate sealer and cultured at room temperature for one hour, and Caspase-3/7 activity was measured using a plate-reading luminometer, GloMax® Explorer (Promega, Wis., USA).

[4] = system: HT-29 cells; test: MTS analysis in human colorectal cancer cells; format: cell-based; conditions: HT-29, MTS, PAA at a concentration up to 2 mM
Description: Anti-proliferation effects of PAA in human colorectal cancer cell lines were measured by MTS analysis.
Next, in order to investigate anti-proliferation effects of PAA on human colorectal cancer cell lines, i.e., HT-29 cells, after treatment with PAA at different concentrations, MTS analysis was conducted.

[5] = system: MDA-MB-231 cells; test: Clonogenicity assay (colony formation); format: cell-based, human; conditions: MDA-MB-231, 7 days
Description: The dissociated 1,000 MDA-MB-231 cells were seeded on a 6-well plate and treated with marked concentrations of PAA and DMSO for 7 days. A representative image of colonies was recorded. Shown data is represented as a mean±SD in three independent tests. * means P<0.05, as compared to DMSO-treated control group;
MDA-MB-231 cells were seeded at a low density on a 6-well plate and treated with different concentrations of PAA in DMEM. After 24 hours, the medium was replaced with fresh medium and incubated for cell growth for 7 days. Grown colonies were counted.

[6] = system: MDA-MB-231 cells; test: Analysis of apoptosis by fluorescent staining (Hoechst 33258); format: cell-based, human; conditions: MDA-MB-231, Hoechst 33258 staining
Description: as §1
MDA-MB-231 cells were treated with 200 μm of PAA for 24 hours and were cultured in a Hoechst 33258 solution (10 mg/mL) at 37° C. for 30 minutes.

[7] = system: MCF-7 cells; test: Cell proliferation (MTS) analysis, MCF-7; format: cell-based, human; conditions: MCF-7, 48 hours after PAA treatment
Description: (FIGS. 1A, B and C) show chemical structures of PAA and viability of MCF-7 and MDA-MB-231 cells depending on PAA. MCF-7 and MDA-MB-231 cells were treated with increasing concentrations of PAA for 48 hours. Anti-proliferation effects of PAA were measured by MTS analysis.
Proliferation rates of MCF-7 and MDA-MB-231 cells were measured using a CellTiter 96® aqueous one solution cell proliferation kit. MCF-7 and MDA-MB-231 cells were cultured in the presence of PAA (0.1, 0.2, 0.5, 1 and 2 mM) on a 96-well plate for 48 hours. In accordance with the manufacturer's protocol, absorbance at 490 nm was determined using a 96-well plate reader (Dynex Revelation, Dynex Ltd., Billingshurst, UK). All data was determined by measurement of three sets.
In order to investigate anti-proliferation effects of PAA in human breast cancer cell lines, i.e., MCF-7 and MDA-MB-231, the cancer cell lines were treated with different concentrations of PAA and then MTS analysis was conducted.

[8] = system: secreted IL-6; test: Western blot of secreted IL-6 in mammosphere culture solution; format: cell-based, human; conditions: culture solution of mammospheres
Description: PAA reduces extracellular IL-6 protein levels in mammosphere culture;
The secreted IL-6 is known to play a key role in the formation of mammospheres (Sansone P, Storci G, Tavolari S, Guarnieri T, Giovannini C, Taffurelli M, Ceccarelli C, Santini D, Paterini P, Marcu K B, Chieco P and Bonafe M. IL-6 triggers malignant features in mammospheres from human ductal breast carcinoma and normal mammary gland. J Clin Invest. 2007; 117(12):3988-4002). Accordingly, in order to investigate the amount of produced secreted IL-6, western blot analysis was conducted in a culture solution of mammospheres using IL-6 antibodies. […] The internal control group was used to count mammospheres before and after treatment with PAA.

## O=CCc1ccccc1 [PAA, phenylacetaldehyde]
[1]
  protein levels of nuclear p65: did not reduce
[2]
  subpopulation expressing CD44high/CD24low in breast cancer cells: reduced
[3]
  activity of caspase 3/7: concentration-dependently induced
[4]
  growth (proliferation) of colorectal cancer cells: did not affect; also recorded: no significant proliferation inhibitory effects
[5]
  formation of colonies: concentration-dependently inhibited
[6]
  formation of apoptotic bodies: apoptotic bodies were formed
[7]
  PAA concentration at which growth of the cell line was concentration-dependently inhibited: ≥ 200 μm
[8]
  production level of secreted IL-6: reduced
